# Where a SMILES comes first, the peptide text is derived from it. [ ]: non-standard residue; d: D form.
# Assays:
# [1] = test system: artificial skin (EpiDermFT); assay: Skin penetration in artificial skin model, confocal fluorescence intensity; assay type: in vitro ADME, human; settings: FITC-labeled (GHRP-6, des(1-3)IGF-I forms) or rhodamine-labeled (PDGF-BB forms), 0.2 mg/mL, 40 μL, 24 h, 32 °C, 5% CO2, at least three images
# Description: To evaluate skin permeability using confocal microscopy, des(1-3)IGF-I and MTD-des(1-3)IGF-I were labeled with fluorescein isothiocyanate (FITC), and PDGF-BB and MTD-PDGF-BB were labeled with rhodamine. The labeling reaction was carried out with the molar ratio of protein: FITC (or rhodamine) as 1:10 at 4 °C for 2 h. Excess FITC and rhodamine were removed using a PD-10 desalting column (GE Healthcare, USA). After adjusting the concentrations of FITC-labeled GHRP-6, MTD-GHRP-6, des(1-3)IGF-I, MTD-des(1-3)IGF-I, PDGF-BB, and MTD-PDGF-BB to 0.2 mg/mL, respectively, each labeled solution was applied to the artificial skin (EpiDermFT™, MatTek, USA). […] The fluorescence intensity per equivalent area of the dermal layer was calculated for each confocal image. Quantification analysis using fluorescence intensity was calculated based on the fluorescence intensity of confocal microscopy images. Three confocal microscopy images were obtained per each artificial skin, and the fluorescence intensity values were extracted from five areas of the same size per dermis layer in the microscopy images. The relative intensity was calculated by comparing the signals between the samples with and without MTD conjugation.
# [2] = test system: fibroblast cell line NIH 3T3; assay: Cell proliferation activity, NIH 3T3 cells (MTT); assay type: cell-based, mouse; settings: 48 h, absorbance 570 nm, triplicates of at least two independent experiments
# Description: The cell proliferation activity of PDGF-BB and MTD-PDGF-BB was measured using NIH 3T3 cells, which were cultured in DMEM medium supplemented with 10% Bovine Calf Serum (BCS; Hyclone, USA) in a 96-well plate at 5 × 10^3 cells/well for 24 h. 100 μL of the protein sample, serially diluted with serum-free DMEM medium, was added to each well and cultured at 37 °C for 48 h. After removing the cell culture medium, 100 μL of a mixed solution of 5 mg/mL MTT and serum-free DMEM at a ratio of 1:10 was added to each well. After 4 h of incubation in a CO2 incubator for 4 h, the reaction solution was removed, and 100 μL of DMSO was added to each well. Formazans were sufficiently dissolved in DMSO using a plate shaker to develop a purple color, which was measured at 570 nm using a microplate reader (Spectra Max, Molecular Devices, USA).
Compound,Fluorescence intensity in the dermal layer (permeability) relative to the original cargo [1],"ED50, cell proliferation [2] [µg/mL]"
CSCC[C@H](NC(=O)[C@H](CCCNC(=N)N)NC(=O)[C@H](C)NC(=O)[C@H](C)NC(=O)[C@H](C)NC(=O)[C@@H]1CCCN1C(=O)[C@H](C)NC(=O)[C@@H](NC(=O)[C@H](C)NC(=O)[C@H](C)NC(=O)CNC(=O)CNC(=O)[C@H](CCCCN)NC(=O)[C@@H](Cc1ccccc1)NC(=O)[C@H](Cc1c[nH]c2ccccc12)NC(=O)[C@H](C)NC(=O)[C@@H](Cc1c[nH]c2ccccc12)NC(=O)[C@@H](N)Cc1c[nH]cn1)C(C)C)C(=O)O [MTD-GHRP-6] (H-H[dW]AW[dF]KGGAAVAPAAARM-OH),approximately five,
"PDGF-BB: recombinant human platelet-derived growth factor BB, dimeric protein",,0.042

# — paper PMC9237094, “Efficient transdermal delivery of functional protein cargoes by a hydrophobic peptide MTD 1067” (Scientific Reports, 2022)
